# Target: bacterial β-glucuronidase (E. coli GUS) (Escherichia coli, UniProt P05804)
# Assay: GUS enzyme activity assay with purified enzyme
# Format: biochemical
# Chain of bacterial β-glucuronidase (E. coli GUS) (P05804 whole entry): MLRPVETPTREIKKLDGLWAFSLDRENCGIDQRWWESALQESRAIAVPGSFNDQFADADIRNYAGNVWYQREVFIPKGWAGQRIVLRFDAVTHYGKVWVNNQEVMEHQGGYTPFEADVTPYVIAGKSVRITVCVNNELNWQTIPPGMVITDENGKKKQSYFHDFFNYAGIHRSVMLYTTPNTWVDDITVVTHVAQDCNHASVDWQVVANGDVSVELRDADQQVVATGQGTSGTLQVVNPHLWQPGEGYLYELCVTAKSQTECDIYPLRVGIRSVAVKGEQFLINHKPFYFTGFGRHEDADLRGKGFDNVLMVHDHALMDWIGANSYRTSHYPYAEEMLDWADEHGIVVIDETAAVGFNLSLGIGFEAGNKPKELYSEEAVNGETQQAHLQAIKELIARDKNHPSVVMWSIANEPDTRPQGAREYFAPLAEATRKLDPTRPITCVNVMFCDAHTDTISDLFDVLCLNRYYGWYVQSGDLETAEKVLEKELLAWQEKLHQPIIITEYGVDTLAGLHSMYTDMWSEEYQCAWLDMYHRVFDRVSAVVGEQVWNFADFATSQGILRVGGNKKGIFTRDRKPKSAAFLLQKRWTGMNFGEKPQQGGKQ
row,Structure (SMILES),IC50
1,"Oc1ccc2c(c1)Oc1ccc(Cl)cc1C(N1CCNCC1)=N2 [7-OHAMOX, 7-hydroxyamoxapine]",0.981 ± 0.183 µM
2,"Oc1ccc2c(c1)N=C(N1CCNCC1)c1cc(Cl)ccc1O2 [8-OHAMOX, 8-hydroxyamoxapine]",1.99 µM

# Source: PMC4079752 (Clinical cancer research : an official journal of the …, 2014)
